One compound from US9353075B2, “Disubstituted beta-lactones as inhibitors of N-acylethanolamine acid amidase (NAAA)” (The Regents of the University of California, priority 2011, dated 2016) can be followed below.

“Also recorded” adds a separate entry of the source.

For data set [1], the system named is DNFB-induced scratching. Kind of data set: DNFB-induced scratching in mice. Particulars: topical, single dose. The format is in vivo, mouse. As for the experimental part: The methods included the following. Dermatitis was produced in mice using 2-4 dinitrofluorobenzene (DNFB) as described by Buckley and Nijkamp (1994), Am J Respir Grit Care Med 149:400-7. Mice were sensitized on two consecutive days with a 0.5% DNFB solution applied to the shaved abdomen. At day 8, the ears were challenged with a 0.2% DNFB solution. Ear thickness was determined by using a micrometer. Scratching was evaluated as number of episodes per 60 minutes period. Data were analysed by ANOVA followed by the Bonferroni's test. See also Hargreaves K, et al (1988), Pain 32: 77-88 for related information.
The methods include the following. Itching in mice was induced with DNFB as previously described. Additional studies were done with 48/80 model (an inducer of mast cell degranulation). 48/80 was given subcutaneously (30 mg per kg). Data were analysed by ANOVA followed by Bonferroni's test for multiple comparisons.

For data set [2], the system named is UVB-induced inflammation. Description: UV-B irradiation model in rats, plantar test. The format is in vivo, rat. As for the experimental part:
Male Sprague Dawley rats (150-175 g, Charles River, Calco, Italy) were anaesthetized with a mixture of Tiletamine (15 mg/Kg) and Zolazepam (15 mg/Kg) administered in a single intra-peritoneal injection. Rats were then placed on their backs and shrouded in a UV opaque material with only the relevant surface of the plantar right hind paw exposed, perpendicular to the narrowband UVB light source situated above the level of the limb. The UVB source used for all experiments consisted of a bank of four TL01 fluorescent tubes (Philips, UK, λmax=312 nm) spaced 2.5 cm apart producing an even field of irradiation. The irradiance produced by the bulbs during each irradiation was determinate at the distance of the limb from the light source using a calibrate meter (I[…] with SEL240/UVB-1/TD filter, ABLE Instruments & Controls Ltd, UK). From this, the doses of UVB to which the rats were exposed were calculated. After plantar irradiation, nociceptive withdrawal responses to both thermal and mechanical stimuli were tested. Heat hypersensitivity was assessed using the rat plantar test equipment (Ugo Basile, Italy) following the method described by Hargreaves et al. (1988). […] Uninjured paw was always assessed first. […] The withdrawal threshold is calculated as the average of three consecutive tests with at list 5 minutes between each test. […]

A short description of data set [3]: Chemical stability in PBS buffer pH 7.4. The format is physicochemical. Particulars: phosphate-buffered saline, 0.01M PBS pH 7.4, 37° C., read-out: Stability in PBS buffer, pH 7.4 t1/2. As for the experimental part: Chemical stability of select compounds was evaluated under physiological pH conditions (0.01M Phosphate-Buffered Saline, pH 7.4) for up to 24 h. Stock solutions of each compound (10 mM) were prepared freshly in DMSO. Each compound was incubated at a final concentration of 10 μM (1% DMSO) in pre-heated buffer (0.01M Phosphate-Buffered Saline (PBS), pH 7.4 at 37° C.). The sample solutions were divided into aliquots in glass vials (pre-heated at 37° C.) for each time point. The samples were maintained at 37° C. in the UPLC/MS Autosampler during the study (no shaking). A reference solution of each compound (final concentration: 10 μM at 1% DMSO) in pre-heated CH3CN (37° C.) was prepared from the stock solutions (10 mM in DMSO). The reference solutions were maintained at 37° C. in the UPLC/MS Autosampler during the study (no shaking). An internal standard (100 nM) was added to the sample and reference solutions. For each time point, the samples were analyzed directly by LC/MS without any further sample preparation. The samples were analyzed (triplicate injection) by monitoring the MS trace by Multiple Reaction Monitoring (MRM). The compound concentration (expressed as %) was calculated by dividing the peak area at each time point by the peak area at t=0 min. The reference solution was analyzed at the beginning (t=0 min.), and at the end of the study (t=24 h). The apparent half-lives (t1/2) of the disappearance of compound were calculated by a one-phase decay equation using a non-linear regression of compound concentration versus time.
The analyses were performed on a Waters ACQUITY UPLC/MS TQD system consisting of a TQD (Triple Quadropole Detector) Mass Spectrometer equipped with an Electrospray Ionization interface and a Photodiode Array Detector. The analyses were run on an ACQUITY UPLC BEH C18 1.7 μm 2.1×50 mm column with a VanGuard BEH C18 1.7 μm pre-column at 40° C. The mobile phase was 0.1% HCOOH in H2O (A) and 0.1% HCOOH in CH3CN (B) using a linear gradient: 0-0.2 min.: 5% B, 0.2-2.2 min.: 5-95% B, 2.2-2.3 min.: 95-5% B, 2.3-3 min.: 5% B with flow rate at 0.5 mL/min. […]

Regarding `C[C@@H]1OC(=O)[C@@H]1NC(=O)OCCCCCc1ccccc1` [Example 6, 5-phenylpentyl-[(2S,3R)-2-methyl-4-oxooxetan-3-yl]-carbamate], in data set [1], the DNFB-induced scratching entry is “prevents DNFB-induced scratching; also recorded: prevented itching”; the “Dose of full effect, DNFB-induced scratching” value was 1-3%; the “Lowest effective dose, DNFB-induced scratching” value is 0.001%. Besides, in data set [2] (10 and 30% w/w, vs vehicle), the “Thermal hyperalgesia induced by irradiation with 250 mJ/cm^2 of UVB” value is recorded as “significantly reduced”. Also, in data set [2] (topical suspension in vaseline oil plus 5% lauric acid), the UVB-induced inflammation entry was “dose-dependently reduced the UVB-induced inflammation”. For the same compound, in data set [3], the half-life at 10 μM worked out at 1.7 h.
